This is an account of results in patent US20240409585A1, “MACROCYCLIC IMMUNOMODULATORS” (priority 2021, published 2024).

Numbered stars: 1 amine (or outer) side, 2 acyl side, 3 side chain; on linkers, the order of the positions; unused ones are H or OH. Bridge positions count the residues as written; N and C are the ends. Square brackets hold non-standard residues; d marks the D form. Peptide text beside a SMILES is read from it. * marks the point of attachment. ξ: configuration not given here. Phe(4-COOH) = N[C@@H](Cc1ccc(C(=O)O)cc1)C(=O)O; Trp(2-Me) = Cc1[nH]c2ccccc2c1C[C@H](N)C(=O)O; X27 = O=C([C@H](Cc1ccc2ncccc2c1)N[*:1])[*:2]; Bip = N[C@@H](Cc1ccc(-c2ccccc2)cc1)C(=O)O; Phe(3-CN) = N#Cc1cccc(C[C@H](N)C(=O)O)c1; Phe(3-Me) = Cc1cccc(C[C@H](N)C(=O)O)c1; Val(3-OH) = CC(C)(O)[C@H](N)C(=O)O; Cha = N[C@@H](CC1CCCCC1)C(=O)O; Cit = NC(=O)NCCC[C@H](N)C(=O)O; Ile(3ξ) = CCC(C)[C@H](N)C(=O)O; Thr(3ξ) = CC(O)[C@H](N)C(=O)O; dDab = NCC[C@@H](N)C(=O)O; Carboxymethyl = O=C(O)C*; NMeA = CN[C@@H](C)C(=O)O; Nle = CCCC[C@H](N)C(=O)O; Orn = NCCC[C@H](N)C(=O)O; Pra = C#CC[C@H](N)C(=O)O; Dab = NCC[C@H](N)C(=O)O; Dap = NC[C@H](N)C(=O)O; ξL = CC(C)CC(N)C(=O)O

This assay deals with T1, PE-labeled human PD-L1-Ig binding to Jurkat cell line over-expressing human PD-1 (Jurkat-PD-1) (Homo sapiens, UniProt Q15116).
T1 construct: expressed in transfected cells; host or cells: Jurkat
T1 sequence (Q15116 25-288): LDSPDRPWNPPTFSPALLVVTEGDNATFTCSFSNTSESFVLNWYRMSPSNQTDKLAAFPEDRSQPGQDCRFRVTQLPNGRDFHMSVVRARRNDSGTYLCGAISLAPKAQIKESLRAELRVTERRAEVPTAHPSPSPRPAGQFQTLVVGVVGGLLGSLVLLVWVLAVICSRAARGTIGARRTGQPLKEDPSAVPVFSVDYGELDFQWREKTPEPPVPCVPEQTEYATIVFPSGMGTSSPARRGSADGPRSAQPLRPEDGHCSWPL
Nature of the assay: Jurkat-PD-1 Cell Binding High-Content Screening Assay (CBA): Method 1. The conditions noted are these: Jurkat-hPD-1 cells, PE-labeled PD-L1-Ig 20 nM final; read-out: Jurkat HPDL1 PD1 IC50 (uM) (Method 1).
What is called IC50 is the concentration that inhibits the measured activity by half. As to `Cc1cccc(C[C@@H]2NC(=O)[C@H](CC(=O)O)NC(=O)[C@H](Cc3ccc(OCC(=O)O)cc3)NC(=O)[C@H](C(C)O)NC(=O)CSC[C@@H](C(=O)N[C@H](CCN)C(N)=O)NC(=O)[C@H](C(C)(C)O)NC(=O)[C@H](C(C)C)NC(=O)[C@H](CC3CCCCC3)NC(=O)[C@H](CCN)NC(=O)[C@@H](CC(C)C)NC(=O)[C@H](C)N(C)C(=O)[C@H](Cc3ccc(OCC(=O)O)cc3)NC(=O)[C@H](Cc3ccc(-c4ccccc4)cc3)NC(=O)[C@H](Cc3ccc(C(=O)O)cc3)NC2=O)c1` (stereo partly drawn) [Compound 2156] ({CH2CO}-[Thr(3ξ)]Y(Carboxymethyl)D[Phe(3-Me)][Phe(4-COOH)][Bip]Y(Carboxymethyl)[NMeA][dL][Dab][Cha]V[Val(3-OH)]C[dDab]-NH2; thioether N-14), the IC50 came to 0.12 µM.

For the compound `CC[C@H](C)[C@@H]1NC(=O)[C@H](Cc2ccc(-c3ccccc3)cc2)NC(=O)[C@H](C(C)C)NC(=O)[C@H](Cc2cccc(C)c2)NC(=O)[C@H](CC(=O)O)NC(=O)[C@H](Cc2ccc(O)cc2)NC(=O)[C@H](CC(N)=O)NC(=O)CSC[C@@H](C(=O)N[C@H](C)C(N)=O)NC(=O)[C@H]([C@@H](C)O)NC(=O)[C@H](C(C)(C)O)NC(=O)[C@H](CC(C)C)NC(=O)[C@H](CCN)NC(=O)[C@@H](CC(C)C)NC(=O)[C@H](C)N(C)C1=O` [Compound 1685] ({CH2CO}-NYD[Phe(3-Me)]V[Bip]I[NMeA][dL][Dab]L[Val(3-OH)]TC[dA]-NH2; thioether N-14), the IC50 came out at 0.1 µM.

As to `C#CC[C@H](NC(=O)CNC(=O)[C@@H]1CSCC(=O)N[C@@H](Cc2ccc(OCC(=O)O)cc2)C(=O)N[C@@H](Cc2ccc(C(=O)O)cc2)C(=O)N[C@@H](CC(=O)O)C(=O)N[C@@H](Cc2c[nH]c3ccccc23)C(=O)N[C@@H](CC(C)C)C(=O)N[C@@H](Cc2ccc(-c3ccccc3)cc2)C(=O)N[C@@H](C(C)C)C(=O)N(C)[C@@H](C)C(=O)N[C@H](CC(C)C)C(=O)N[C@@H](CCN)C(=O)N[C@@H](CC2CCCCC2)C(=O)N[C@@H](C(C)(C)O)C(=O)N[C@@H](CO)C(=O)N1)C(=O)O` [Compound 1935] ({CH2CO}-Y(Carboxymethyl)[Phe(4-COOH)]DWL[Bip]V[NMeA][dL][Dab][Cha][Val(3-OH)]SCG[Pra]-OH; thioether N-14), the concentration for half-maximal inhibition (IC50) worked out at 0.04 µM.

On to `CC(C)C[C@@H]1NC(=O)[C@H](Cc2c[nH]c3ccccc23)NC(=O)[C@H](CC(=O)O)NC(=O)[C@H](Cc2cccc(C#N)c2)NC(=O)[C@H](Cc2ccccc2)NC(=O)CSC[C@@H](C(=O)N[C@@H](C)C(N)=O)NC(=O)[C@H](CO)NC(=O)[C@H](C(C)C)NC(=O)[C@H](CC(C)C)NC(=O)[C@H](CC(N)=O)NC(=O)[C@@H](C)NC(=O)[C@H](C)N(C)C(=O)[C@H](C(C)C)NC(=O)[C@H](Cc2ccc(-c3ccccc3)cc2)NC1=O` [Compound 1723] ({CH2CO}-F[Phe(3-CN)]DWL[Bip]V[NMeA][dA]NLVSCA-NH2; thioether N-14), for which the IC50 was found to be 0.01 µM.

As to `CC(C)C[C@@H]1NC(=O)[C@H](Cc2c[nH]c3ccccc23)NC(=O)[C@H](CC(=O)O)NC(=O)[C@H](Cc2ccc(O)cc2)NC(=O)[C@H](Cc2ccccc2)NC(=O)CSC[C@@H](C(=O)N[C@@H](C)C(N)=O)NC(=O)[C@H](CO)NC(=O)[C@H](C(C)C)NC(=O)[C@H](CC(C)C)NC(=O)[C@H](CC(N)=O)NC(=O)[C@@H](CC(C)C)NC(=O)[C@H](C)N(C)C(=O)[C@H](CCCNC(=N)N)NC(=O)[C@H](Cc2ccc(-c3ccccc3)cc2)NC1=O` [Compound 1775] ({CH2CO}-FYDWL[Bip]R[NMeA][dL]NLVSCA-NH2; thioether N-14), the IC50 turned out to be 0.05 µM.

Regarding `CC(C)C[C@@H]1NC(=O)[C@H](CCCNC(=N)N)NC(=O)[C@@H](CC(C)C)NC(=O)[C@H](C)N(C)C(=O)[C@H](CCC(=O)O)NC(=O)[C@H](Cc2ccc(-c3ccccc3)cc2)NC(=O)[C@H](C(C)C)NC(=O)[C@H](Cc2c[nH]c3ccccc23)NC(=O)[C@H](CC(=O)O)NC(=O)[C@H](Cc2ccc(O)cc2)NC(=O)[C@H](CC(N)=O)NC(=O)CSC[C@@H](C(=O)N[C@@H](C)C(N)=O)NC(=O)[C@H](CCCN)NC(=O)[C@H](C(C)C)NC1=O` [Compound 1250] ({CH2CO}-NYDWV[Bip]E[NMeA][dL]RLV[Orn]CA-NH2; thioether N-14), the IC50 worked out at 0.07 µM.

Take `CC(C)C[C@@H]1NC(=O)[C@H](CCN)NC(=O)[C@@H](CC(C)C)NC(=O)[C@H](C)N(C)C(=O)[C@H](CCCNC(N)=O)NC(=O)[C@H](Cc2ccc(-c3ccccc3)cc2)NC(=O)[C@H](C(C)C)NC(=O)[C@H](Cc2c[nH]c3ccccc23)NC(=O)[C@H](CC(=O)O)NC(=O)[C@H](Cc2ccc(O)cc2)NC(=O)[C@H](Cc2ccc3ncccc3c2)NC(=O)CSC[C@@H](C(=O)N[C@@H](C)C(N)=O)NC(=O)[C@H](C(C)O)NC(=O)[C@H](C(C)C)NC1=O` (stereo partly drawn) [Compound 2036] ({CH2CO}-[X27]YDWV[Bip][Cit][NMeA][dL][Dab]LV[Thr(3ξ)]CA-NH2; thioether N-14): the IC50 was 0.04 µM.

As to `CC(C)C[C@@H]1NC(=O)[C@H](Cc2c[nH]c3ccccc23)NC(=O)[C@H](CC(=O)O)NC(=O)[C@H](Cc2ccc(C(=O)O)cc2)NC(=O)[C@H](Cc2ccc(OCC(=O)O)cc2)NC(=O)CSC[C@@H](C(N)=O)NC(=O)[C@H](CO)NC(=O)[C@H](C(C)C)NC(=O)[C@H](CC2CCCCC2)NC(=O)[C@H](Cc2cnc[nH]2)NC(=O)[C@@H](CC(C)C)NC(=O)[C@H](C)N(C)C(=O)[C@H](C(C)C)NC(=O)[C@H](Cc2ccc(-c3ccccc3)cc2)NC1=O` [Compound 2252] ({CH2CO}-Y(Carboxymethyl)[Phe(4-COOH)]DWL[Bip]V[NMeA][dL]H[Cha]VSC-NH2; thioether N-14), the IC50 amounted to 0.08 µM.

Turning to `CCC(C)[C@@H]1NC(=O)[C@H](Cc2ccc(-c3ccccc3)cc2)NC(=O)[C@H](CC(C)C)NC(=O)[C@H](Cc2c[nH]c3ccccc23)NC(=O)[C@H](CC(=O)O)NC(=O)[C@H](Cc2ccc(C(=O)O)cc2)NC(=O)[C@H](Cc2ccc(OCC(=O)O)cc2)NC(=O)CSC[C@@H](C(=O)N[C@@H](CO)C(N)=O)NC(=O)[C@H](CCC(=O)O)NC(=O)[C@H](C(C)C)NC(=O)[C@H](CC2CCCCC2)NC(=O)[C@H](CCN)NC(=O)[C@@H](CC(C)C)NC(=O)[C@H](C)N(C)C1=O` (stereo partly drawn) [Compound 1930] ({CH2CO}-Y(Carboxymethyl)[Phe(4-COOH)]DWL[Bip][Ile(3ξ)][NMeA][dL][Dab][Cha]VECS-NH2; thioether N-14), the IC50 came to 0.02 µM.

On to `Cc1[nH]c2ccccc2c1C[C@@H]1NC(=O)[C@H](CC(=O)O)NC(=O)[C@H](Cc2ccc(O)cc2)NC(=O)[C@H](Cc2ccccc2)NC(=O)CSC[C@@H](C(=O)N[C@@H](C)C(N)=O)NC(=O)[C@H]([C@@H](C)O)NC(=O)[C@H](C(C)C)NC(=O)[C@H](CC(C)C)NC(=O)[C@H](CCN)NC(=O)[C@@H](CC(C)C)NC(=O)[C@H](C)N(C)C(=O)[C@H](CCCNC(=N)N)NC(=O)[C@H](Cc2ccc(-c3ccccc3)cc2)NC(=O)[C@H](C(C)C)NC1=O` [Compound 1202] ({CH2CO}-FYD[Trp(2-Me)]V[Bip]R[NMeA][dL][Dab]LVTCA-NH2; thioether N-14), for which the IC50 was 0.73 µM.

Regarding `CCC(C)[C@@H]1NC(=O)[C@H](Cc2ccc(-c3ccccc3)cc2)NC(=O)[C@H](C(C)C)NC(=O)[C@H](Cc2c[nH]c3ccccc23)NC(=O)[C@H](CC(=O)O)NC(=O)[C@H](Cc2ccc(OCC(=O)O)cc2)NC(=O)[C@H](C(C)O)NC(=O)CSC[C@@H](C(=O)N[C@@H](CCN)C(N)=O)NC(=O)[C@H](C(C)O)NC(=O)[C@H](C(C)C)NC(=O)[C@H](CC2CCCCC2)NC(=O)[C@H](CCN)NC(=O)C(CC(C)C)NC(=O)[C@H](C)N(C)C1=O` (some centres unmarked) [Compound 2114] ({CH2CO}-[Thr(3ξ)]Y(Carboxymethyl)DWV[Bip][Ile(3ξ)][NMeA][ξL][Dab][Cha]V[Thr(3ξ)]C[Dab]-NH2; thioether N-14), the IC50 came out at 0.02 µM.

Regarding `CCCC[C@@H]1NC(=O)[C@H](CCCNC(=N)N)NC(=O)[C@@H](CC(C)C)NC(=O)[C@H](C)N(C)C(=O)[C@H](C(C)C)NC(=O)[C@H](Cc2ccc(-c3ccccc3)cc2)NC(=O)[C@H](C(C)C)NC(=O)[C@H](Cc2c[nH]c3ccccc23)NC(=O)[C@H](CC(=O)O)NC(=O)[C@H](Cc2ccc(O)cc2)NC(=O)[C@H](Cc2ccc(OCC(=O)O)cc2)NC(=O)CSC[C@@H](C(=O)N[C@@H](C)C(N)=O)NC(=O)[C@H]([C@@H](C)O)NC(=O)[C@H](C(C)C)NC1=O` [Compound 1501] ({CH2CO}-Y(Carboxymethyl)YDWV[Bip]V[NMeA][dL]R[Nle]VTCA-NH2; thioether N-14), the IC50 stood at 0.08 µM.

Consider `Cc1cccc(C[C@@H]2NC(=O)[C@H](CC(=O)O)NC(=O)[C@H](Cc3ccc(OCC(=O)O)cc3)NC(=O)[C@H](CC(N)=O)NC(=O)CSC[C@@H](C(N)=O)NC(=O)[C@H](CCCN)NC(=O)[C@H](C(C)C)NC(=O)[C@H](CC3CCCCC3)NC(=O)[C@H](CCN)NC(=O)[C@@H](CC(C)C)NC(=O)[C@H](C)N(C)C(=O)[C@H](Cc3ccc(OCC(=O)O)cc3)NC(=O)[C@H](Cc3ccc(-c4ccccc4)cc3)NC(=O)[C@H](Cc3ccc(OCC(=O)O)cc3)NC2=O)c1` [Compound 1668] ({CH2CO}-NY(Carboxymethyl)D[Phe(3-Me)]Y(Carboxymethyl)[Bip]Y(Carboxymethyl)[NMeA][dL][Dab][Cha]V[Orn]C-NH2; thioether N-14), for which the IC50 was determined as 0.05 µM.

Take `CC(C)C[C@@H]1NC(=O)[C@H](CCN)NC(=O)[C@@H](CC(C)C)NC(=O)[C@H](C)N(C)C(=O)[C@H](CCCNC(=N)N)NC(=O)[C@H](Cc2ccc(-c3ccccc3)cc2)NC(=O)[C@H](C(C)C)NC(=O)[C@H](Cc2c[nH]c3ccccc23)NC(=O)[C@H](CC(=O)O)NC(=O)[C@H](Cc2ccc(OCC(=O)O)cc2)NC(=O)[C@H](CN)NC(=O)CSC[C@@H](C(=O)N[C@@H](C)C(N)=O)NC(=O)[C@H]([C@@H](C)O)NC(=O)[C@H](C(C)C)NC1=O` [Compound 1450] ({CH2CO}-[Dap]Y(Carboxymethyl)DWV[Bip]R[NMeA][dL][Dab]LVTCA-NH2; thioether N-14): the 50% inhibitory concentration (IC50) was 0.06 µM.
